Where two headings read alike, the source gives them in different places.

In general, LD50 refers to the dose expected to kill half of the subjects tested.

Data set [1] relates to ischemic cerebral edemas of rats caused by occlusion of the middle cerebral artery. Put plainly: Action upon ischemic cerebral edemas of rats caused by occlusion of the middle cerebral artery. In kind it is in vivo, Wistar rats. The note with it: Rattus norvegicus, ip, 24 h, read-out: Cerebral Edema Inhibition Rate; for inhibition in vivo at 30 mg/kg: dose 30 mg/Kg i.p.; for inhibition in vivo at 25 mg/kg: dose 25 mg/Kg i.p. How it is done: (Action upon ischemic cerebral edemas of rats caused by occlusion of the middle cerebral artery)
The compound being tested was suspended in 0.5% aqueous solution of CMC, and this suspension was intraperitoneally injected to each rat immediately after occlusion, and 8 hours and 16 hours later (a total of three times). Twenty-four hours after occlusion, each of the treated rats was sacrificed, the brain was excised, and the water content of hemispheres were determined by weighing the hemispheres before and after drying at 110° C. to the constant weight. On the other hand, the rats of the control group were subjected to arterial occlusion in the same way as above, followed by intraperitoneal injection of physiological saline three times a day. The cerebral edema inhibition rate of each compound was calculated from the following equation: [formula] where CL and CR represent the water contents of left and right hemispheres of the control group and SL and SR the water contents of left and right hemispheres of the treated group.

Data set [2] can be described thus: Acute toxicity (LD50) by intraperitoneal injection to mice. As to conditions: mouse, in vivo, ip, mortality 48 hours after injection. The protocol:
Acute toxicity (LD50) was determined by intraperitoneal injection of a compound being tested to mice and by calculation from the mortality 48 hours after injection by the usual method.

In data set [3] the test system is cerebral infarction of rats caused by occlusion of the middle cerebral artery. Put plainly: Action against cerebral infarction of rats caused by occlusion of the middle cerebral artery (TTC stain, planimeter). The note with it: i.p. three times, 24 h after occlusion. The class given is in vivo. The protocol:
(Action against cerebral infarction of rats caused by occlusion of the middle cerebral artery)
Cerebral infarction of rats caused by occlusion of the middle cerebral artery was measured by the method of Tamura et al. (Japan Clinics, 43, 185, 1985). The middle cerebral artery of rats was artificially occluded, the compound being tested was suspended in 0.5% aqueous solution of CMC, and this suspension was intraperitoneally injected to each rat immediately after occlusion, and 8 hours and 16 hours later (a total of three times). Twenty-four hours after occlusion, each of the treated rats was sacrificed, and the brain was excised, stained with TTC and cut into equal six parts from top to bottom. The cross-sections were photographed, and the ratio of infarcted areas to the whole brain was measured by means of a planimeter.

The conditions of data set [4]: cited from earlier work; for protection of the brain from cerebral ischemia: literature.
Where [5] appears, read: three times (immediately, 8 and 16 h after occlusion).
The mark [6] stands for this setting: control group 11.58 ± 0.81, **1% significant difference.
The mark [7] stands for this setting: control group 11.58 ± 0.81, *5% significant difference.
Setting [8] is: dose 50 mg/Kg i.p., three times (immediately, 8 and 16 h after occlusion).

On to `O=C([O-])N1N=CCC1c1ccccc1.[Na+]` (stereo not drawn), for which the inhibition in vivo at 50 mg/kg in data set [1] came out at 18.6%. Besides, the LD50 at 48 h in data set [2] is 710 mg/kg.
`O=C(c1cccnc1)N1N=CCC1c1ccccc1` (stereo not drawn) [Compound 1, 1-(3-Pyridylcarbonyl)-5-phenyl-2-pyrazoline]: the inhibition in vivo at 30 mg/kg in data set [1] (setting [5]) was found to be 36%. Also, the LD50 at 48 h in data set [2] turned out to be 600 mg/kg. For the same molecule, the “Rate of Infarcted Area” value in data set [3] (setting [6]) amounted to 5.03 ± 0.49%.
Consider `O=C(c1ccncc1)N1N=CCC1c1ccccc1` (stereo not drawn) [Compound 2, 1-(4-Pyridylcarbonyl)-5-phenyl-2-pyrazoline], for which the inhibition in vivo at 30 mg/kg in data set [1] (setting [5]) worked out at 30.5%. In data set [2], this molecule gave a 50% lethal dose (LD50) at 48 h of 630 mg/kg.
For the molecule `O=C(c1ccccn1)N1N=CCC1c1ccccc1` (stereo not drawn) [Compound 3, 1-(2-Pyridylcarbonyl)-5-phenyl-2-pyrazoline], the inhibition in vivo at 30 mg/kg in data set [1] (setting [5]) is 15.7%. For the same molecule, the LD50 at 48 h in data set [2] was 560 mg/kg.
Consider `COc1ccccc1C1CC=NN1C(=O)c1cccnc1` (stereo not drawn) [Compound 4, 1-(3-Pyridylcarbonyl)-5-(2-methoxyphenyl)-2-pyrazoline], for which the inhibition in vivo at 30 mg/kg in data set [1] (setting [5]) came to 28.3%. This molecule gave an LD50 at 48 h in data set [2] of 610 mg/kg.
For `COc1cccc(C2CC=NN2C(=O)c2cccnc2)c1` (stereo not drawn) [Compound 5, 1-(3-Pyridylcarbonyl)-5-(3-methoxyphenyl)-2-pyrazoline], in data set [1] (setting [5]), the inhibition in vivo at 30 mg/kg turned out to be 20.7%. Also, in data set [2], the LD50 at 48 h was 630 mg/kg.
For the molecule `COc1ccc(C2CC=NN2C(=O)c2cccnc2)cc1` (stereo not drawn) [Compound 6, 1-(3-Pyridylcarbonyl)-5-(4-methoxyphenyl)-2-pyrazoline], the inhibition in vivo at 30 mg/kg in data set [1] (setting [5]) was found to be 19.3%. In data set [2], the median lethal dose (LD50) at 48 h was determined as 830 mg/kg.
Regarding `O=C(c1cccnc1)N1N=CCC1c1ccco1` (stereo not drawn) [Compound 7, 1-(3-Pyridylcarbonyl)-5-(2-furyl)-2-pyrazoline], the inhibition in vivo at 30 mg/kg in data set [1] (setting [5]) was 31.2%. For the same molecule, the LD50 at 48 h in data set [2] worked out at 1100 mg/kg. Besides, the “Rate of Infarcted Area” value in data set [3] (setting [7]) is reported as 6.96 ± 0.79%.
As to `O=C(c1cnccn1)N1N=CCC1c1ccccc1` (stereo not drawn) [Compound 8, 1-Pyrazylcarbonyl-5-phenyl-2-pyrazoline], the inhibition in vivo at 25 mg/kg in data set [1] (setting [5]) was 33%. In data set [2], this molecule had an LD50 at 48 h of 710 mg/kg.
Taken in the same sequence, the figures for `O=C(c1cccnc1)N1N=CCC1c1ccccc1F` (stereo not drawn) [Compound 9, 1-(3-Pyridylcarbonyl)-5-(2-fluorophenyl)-2-pyrazoline] were 29.1% and 830 mg/kg.
Take `Cc1ccccc1C1CC=NN1C(=O)c1cccnc1` (stereo not drawn) [Compound 10, 1-(3-Pyridylcarbonyl)-5-(2-methylphenyl)-2-pyrazoline]: in data set [1] (setting [5]), the inhibition in vivo at 25 mg/kg turned out to be 31.3%. In addition, the LD50 at 48 h in data set [2] came out at 610 mg/kg.
In the same order, the values of `O=C(c1cccnc1)N1N=CCC1c1ccc(Cl)cc1` (stereo not drawn) [Compound 11, 1-(3-Pyridylcarbonyl)-5-(4-chlorophenyl)-2-pyrazoline] are 29.3% and 710 mg/kg.
Take `CC1CC=NN1C(=O)c1cccnc1` (stereo not drawn) [Compound 17, 1-(3-Pyridylcarbonyl)-5-methyl-2-pyrazoline]: the inhibition in vivo at 25 mg/kg in data set [1] (setting [5]) turned out to be 34%. This molecule returned an LD50 at 48 h in data set [2] of 850 mg/kg. In addition, the “Rate of Infarcted Area” value in data set [3] (setting [7]) is reported as 8.01 ± 0.54%.
With `CC(C)C1CC=NN1C(=O)c1cccnc1` (stereo not drawn) [Compound 22, 1-(3-Pyridylcarbonyl)-5-isopropyl-2-pyrazoline], in data set [1] (setting [8]), the inhibition in vivo at 50 mg/kg came out at 27.2%. Besides, in data set [2], the median lethal dose (LD50) at 48 h turned out to be 830 mg/kg.
With `CCOC(=O)N1N=CCC1c1ccccc1` (stereo not drawn) [Compound 25, 1-Ethoxycarbonyl-5-phenyl-2-pyrazoline], the inhibition in vivo at 50 mg/kg in data set [1] (setting [8]) amounted to 27.2%. In addition, the median lethal dose (LD50) at 48 h in data set [2] is 830 mg/kg.
Take `CCOC(=O)N1N=CCC1C` (stereo not drawn) [Compound 28, 1-Ethoxycarbonyl-5-methyl-2-pyrazoline]: in data set [3] (setting [6]), the “Rate of Infarcted Area” value is reported as 5.79 ± 0.43%.
With `CCC1CC=NN1C(=O)OC` (stereo not drawn) [Compound 30, 1-Methoxycarbonyl-5-ethyl-2-pyrazoline], the inhibition in vivo at 25 mg/kg in data set [1] (setting [5]) amounted to 29.1%. In data set [2], this molecule had a 50% lethal dose (LD50) at 48 h of 740 mg/kg.
Turning to `C1=NNC(c2ccccc2)C1` (stereo not drawn) [Compound 31, 5-Phenyl-2-pyrazoline], the inhibition in vivo at 25 mg/kg in data set [1] (setting [5]) amounted to 32%. The LD50 at 48 h in data set [2] was found to be 540 mg/kg. Further, in data set [3] (setting [7]), the “Rate of Infarcted Area” value was 7.93 ± 0.56%.
As for `Clc1ccccc1C1CC=NN1` (stereo not drawn) [Compound 34, 5-(2-Chlorophenyl)-2-pyrazoline], the inhibition in vivo at 25 mg/kg in data set [1] (setting [5]) was determined as 29.1%. The median lethal dose (LD50) at 48 h in data set [2] came to 600 mg/kg. In addition, the “Rate of Infarcted Area” value in data set [3] (setting [7]) is reported as 8.56 ± 0.71%.
Turning to `Cc1ccccc1C1CC=NN1` (stereo not drawn) [Compound 37, 5-(2-Methylphenyl)-2-pyrazoline], the inhibition in vivo at 25 mg/kg in data set [1] (setting [5]) came to 30.4%. Besides, the median lethal dose (LD50) at 48 h in data set [2] was 680 mg/kg.
With `COc1ccccc1C1CC=NN1` (stereo not drawn) [Compound 40, 5-(2-Methoxylphenyl)-2-pyrazoline], the inhibition in vivo at 25 mg/kg in data set [1] (setting [5]) is 25.7%. In data set [2], this molecule registered an LD50 at 48 h of 560 mg/kg.
For the molecule `Fc1cccc(C2CC=NN2)c1` (stereo not drawn) [Compound 42, 5-(3-Fluorophenyl)-2-pyrazoline], the inhibition in vivo at 25 mg/kg in data set [1] (setting [5]) is 23.9%. In data set [2], this molecule registered an LD50 at 48 h of 710 mg/kg.
Consider `FC(F)(F)c1cccc(C2CC=NN2)c1` (stereo not drawn) [Compound 45, 5-(3-Trifluoromethylphenyl)-2-pyrazoline], for which the inhibition in vivo at 25 mg/kg in data set [1] (setting [5]) amounted to 30.4%. The same molecule yielded an LD50 at 48 h in data set [2] of 630 mg/kg.
Consider `C1=NNC(c2ccncc2)C1` (stereo not drawn) [Compound 52, 5-(4-Pyridyl)-2-pyrazoline], for which the inhibition in vivo at 25 mg/kg in data set [1] (setting [5]) was 21.8%. Also, the median lethal dose (LD50) at 48 h in data set [2] was 540 mg/kg.
Regarding `C1=NNC(c2cccnc2)C1` (stereo not drawn) [Compound 53, 5-(3-Pyridyl)-2-pyrazoline], the inhibition in vivo at 25 mg/kg in data set [1] (setting [5]) is 16.7%. Further, in data set [2], the LD50 at 48 h is 600 mg/kg.
In the same order, the values of `CC(=O)N1N=CCC1c1ccccc1` (stereo not drawn) [Compound 56, -Acetyl-5-phenyl-2-pyrazoline] are 15.9% and 1100 mg/kg.
Turning to `O=C(c1ccccc1)N1N=CCC1c1ccccc1` (stereo not drawn) [Compound 59, 1-Benzoyl-5-phenyl-2-pyrazoline], the inhibition in vivo at 30 mg/kg in data set [1] (setting [5]) turned out to be 21.7%. In data set [2], this molecule registered an LD50 at 48 h of 600 mg/kg. Besides, the “Rate of Infarcted Area” value in data set [3] (setting [7]) amounted to 7.69 ± 0.67%.
Turning to `O=C(c1ccc(C(F)(F)F)cc1)N1N=CCC1c1ccccc1` (stereo not drawn) [Compound 60, 1-(4-Trifluoromethylbenzoyl)-5-phenyl-2-pyrazoline], in data set [1] (setting [5]), the inhibition in vivo at 30 mg/kg was 20.9%. This molecule showed a 50% lethal dose (LD50) at 48 h in data set [2] of 810 mg/kg.
Taken in the same sequence, the figures for `O=C(CN1N=CCC1c1ccccc1)c1ccccc1` (stereo not drawn) [Compound 61, 1-Benzoylmethyl-5-phenyl-2-pyrazoline] were 16.7% and 540 mg/kg.
With `O=C(C1CCCCC1)N1N=CCC1c1ccccc1` (stereo not drawn) [Compound 62, 1-Cyclohexylcarbonyl-5-phenyl-2-pyrazoline], the inhibition in vivo at 30 mg/kg in data set [1] (setting [5]) came out at 15.3%. The same molecule registered a median lethal dose (LD50) at 48 h in data set [2] of 630 mg/kg.
In the same order, the values of `O=C(c1ccco1)N1N=CCC1c1ccccc1` (stereo not drawn) [Compound 63, 1-(2-Furylcarbonyl)-5-phenyl-2-pyrazoline] are 26.1% and 710 mg/kg.
In the case of `O=C(c1cccs1)N1N=CCC1c1ccccc1` (stereo not drawn) [Compound 64, 1-(2-Thienylcarbonyl)-5-phenyl-2-pyrazoline], the inhibition in vivo at 30 mg/kg in data set [1] (setting [5]) stood at 28.5%. In data set [2], the median lethal dose (LD50) at 48 h was found to be 830 mg/kg.
As to `O=C(Nc1cccnc1)N1N=CCC1c1ccccc1` (stereo not drawn) [Compound 65, 1-[N-(3-pyridyl)carbamoyl]-5-phenyl-2-pyrazoline], the inhibition in vivo at 25 mg/kg in data set [1] (setting [5]) is 27.1%. Further, in data set [2], the 50% lethal dose (LD50) at 48 h amounted to 630 mg/kg.
As for `S=C(Nc1cccnc1)N1N=CCC1c1ccccc1` (stereo not drawn) [Compound 66, 1-[N-(3-pyridyl)thiocarbamoyl]-5-phenyl-2-pyrazoline], the inhibition in vivo at 25 mg/kg in data set [1] (setting [5]) is 18.9%. This molecule also yielded an LD50 at 48 h in data set [2] of 560 mg/kg.
On to `CCN(CC)Cc1nccn1-c1ccc([N+](=O)[O-])cc1C(=O)c1ccccc1Cl` [Nizofenone], for which, in data set [4] (Japan Clinics, 43, 185, 1985), the “action to inhibit cerebral edemas” value is listed as “no action to inhibit cerebral edemas” and the consciousness troubles result is “helps alleviate consciousness troubles”. For the same molecule, the “protection of the brain from cerebral ischemia” value (“protection of the brain” for short) in data set [4] was “useful to protect the brain from cerebral ischemia”.
Regarding `CCC1(c2ccccc2)C(=O)NC(=O)N(C)C1=O` (stereo not drawn) [mefobarbital], in data set [4], the “protection of the brain” value is given as “protect the brain from cerebral ischemia”.
In the case of `CCCC(C)C1(CC)C(=O)NC(=O)NC1=O` (stereo not drawn) [pentobarbital], the “protection of the brain” value in data set [4] was “protect the brain from cerebral ischemia”.
